Drawing on ChEMBL document CHEMBL1141715, “Novel BK channel openers containing dehydroabietic acid skeleton: structure-activity relationship for peripheral substituents on ring C” (Bioorg Med Chem Lett, 2008), this text covers Activity for 49 compounds.

Each structure is given as a SMILES string.

For the assay, the target named is Calcium-activated potassium channel subunit alpha-1 (Homo sapiens) (UniProt Q12791). The experiment in a line: Channel opening activity at human BKalpha channel expressed in CHOK1 cells assessed as ionic current amplitude at 30 uM at holding potential of -90 mV by population patch clamp technique relative to untreated control. In kind it is cell-based. Particulars: CHO-K1.
Sequence of Calcium-activated potassium channel subunit alpha-1 (Homo sapiens) (Q12791 whole entry): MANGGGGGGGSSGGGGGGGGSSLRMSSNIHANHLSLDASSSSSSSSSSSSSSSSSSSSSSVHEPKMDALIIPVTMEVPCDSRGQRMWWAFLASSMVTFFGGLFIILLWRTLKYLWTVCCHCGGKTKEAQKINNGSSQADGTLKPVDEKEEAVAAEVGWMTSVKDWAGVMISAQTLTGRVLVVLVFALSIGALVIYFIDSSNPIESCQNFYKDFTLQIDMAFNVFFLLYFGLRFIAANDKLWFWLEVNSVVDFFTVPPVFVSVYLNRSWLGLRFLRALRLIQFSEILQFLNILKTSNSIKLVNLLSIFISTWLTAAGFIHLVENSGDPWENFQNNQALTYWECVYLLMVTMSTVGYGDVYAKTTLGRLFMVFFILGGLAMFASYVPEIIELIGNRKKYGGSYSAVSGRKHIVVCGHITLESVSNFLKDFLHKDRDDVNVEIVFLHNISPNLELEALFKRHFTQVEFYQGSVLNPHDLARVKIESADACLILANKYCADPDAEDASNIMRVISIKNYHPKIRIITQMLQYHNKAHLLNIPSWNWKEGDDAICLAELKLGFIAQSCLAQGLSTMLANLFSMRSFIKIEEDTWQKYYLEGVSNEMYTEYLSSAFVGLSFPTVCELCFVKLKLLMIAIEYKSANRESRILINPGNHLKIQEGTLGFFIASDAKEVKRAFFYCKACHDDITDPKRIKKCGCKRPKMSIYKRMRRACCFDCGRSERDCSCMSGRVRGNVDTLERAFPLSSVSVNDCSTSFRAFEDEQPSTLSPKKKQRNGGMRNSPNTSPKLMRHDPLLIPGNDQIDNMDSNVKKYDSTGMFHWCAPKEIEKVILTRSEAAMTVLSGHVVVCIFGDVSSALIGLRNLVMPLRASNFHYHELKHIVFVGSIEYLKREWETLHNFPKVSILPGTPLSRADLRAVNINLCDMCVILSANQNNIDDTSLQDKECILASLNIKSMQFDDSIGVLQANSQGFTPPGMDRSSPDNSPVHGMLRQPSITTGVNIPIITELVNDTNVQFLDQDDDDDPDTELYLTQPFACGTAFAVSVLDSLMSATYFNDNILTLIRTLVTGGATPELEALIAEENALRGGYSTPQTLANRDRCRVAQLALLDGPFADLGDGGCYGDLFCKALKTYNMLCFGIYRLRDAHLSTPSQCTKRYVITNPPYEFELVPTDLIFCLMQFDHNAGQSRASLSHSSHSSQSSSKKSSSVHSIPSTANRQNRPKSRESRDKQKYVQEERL
Take `CC(C)c1cc2c(cc1NC(=O)Nc1cccc(Cl)c1)[C@@]1(C)CCC[C@@](C)(C(=O)O)[C@@H]1CC2`: the Activity is 136%.
Take `CCCCCCOc1cc2c(cc1C(C)C)CC[C@H]1[C@](C)(C(=O)O)CCC[C@]21C`: the Activity turned out to be 78.7%.
Under `COc1ccc(C(=O)Nc2cc3c(cc2C(C)C)CC[C@H]2[C@](C)(C(=O)O)CCC[C@]32C)cc1` stands 94.1%; under `COc1ccc(Cl)cc1NC(=O)Nc1cc2c(cc1C(C)C)CC[C@H]1[C@](C)(C(=O)O)CCC[C@]21C`, 94.4%; under `CC(C)c1cc2c(cc1NC(=O)Nc1cccc(C(F)(F)F)c1)[C@@]1(C)CCC[C@@](C)(C(=O)O)[C@@H]1CC2`, 99.9%.
For `CCCCCCCCCOc1cc2c(cc1C(C)C)CC[C@H]1[C@](C)(C(=O)O)CCC[C@]21C`, the Activity was 81.8%.
With `CC(C)c1cc2c(cc1NC(=O)c1ccc(C(F)(F)F)cc1)[C@@]1(C)CCC[C@@](C)(C(=O)O)[C@@H]1CC2` the figure was 128%.
With `CC(C)c1cc2c(cc1NC(=O)Nc1cc(Cl)cc(Cl)c1)[C@@]1(C)CCC[C@@](C)(C(=O)O)[C@@H]1CC2`, the Activity is 151%.
For the compound `CC(C)c1cc2c(cc1NC(=O)Nc1cc(C(F)(F)F)ccc1Cl)[C@@]1(C)CCC[C@@](C)(C(=O)O)[C@@H]1CC2`, the Activity was found to be 128%.
Regarding `CCNC(=O)Nc1cc2c(cc1C(C)C)CC[C@H]1[C@](C)(C(=O)O)CCC[C@]21C`, the Activity was found to be 89.9%.
With `CC(C)c1cc2c(cc1NC(=O)Nc1ccc(F)c(Cl)c1)[C@@]1(C)CCC[C@@](C)(C(=O)O)[C@@H]1CC2` the figure was 156%; with `CC(C)c1cc2c(cc1NC(=O)Cc1ccccc1)[C@@]1(C)CCC[C@@](C)(C(=O)O)[C@@H]1CC2`, 90.9%.
Turning to `CC(C)c1c(Cl)cc2c(c1Cl)CC[C@H]1[C@](C)(C(=O)O)CCC[C@]21C`, the Activity was determined as 180%.
In the case of `CC(C)c1cc2c(cc1NC(=S)Nc1cccc(C(F)(F)F)c1)[C@@]1(C)CCC[C@@](C)(C(=O)O)[C@@H]1CC2`, the Activity worked out at 143%.
Under `CC(C)c1cc2c(cc1NC(=O)c1ccccc1)[C@@]1(C)CCC[C@@](C)(C(=O)O)[C@@H]1CC2` stands 90%.
On to `CC(C)c1ccc2c(c1N)CC[C@H]1[C@](C)(C(=O)O)CCC[C@]21C`, for which the Activity came to 88.2%.
Regarding `CC(C)c1cc2c(cc1N)[C@@]1(C)CCC[C@@](C)(C(=O)O)[C@@H]1CC2`, the Activity was determined as 88.9%.
With `COc1cc2c(cc1C(C)C)CC[C@H]1[C@](C)(C(=O)O)CCC[C@]21C` the figure was 85.9%; with `CC(C)c1cc2c(cc1NC(=O)Nc1ccc(C(F)(F)F)cc1)[C@@]1(C)CCC[C@@](C)(C(=O)O)[C@@H]1CC2`, 138%.
With `CC(C)c1cc2c(cc1NC(=O)CN1CCCCC1)[C@@]1(C)CCC[C@@](C)(C(=O)O)[C@@H]1CC2` the figure was 107%; with `CC(C)c1cc2c(cc1NC(=O)Nc1ccccc1C(F)(F)F)[C@@]1(C)CCC[C@@](C)(C(=O)O)[C@@H]1CC2`, 114%.
As to `CC(C)c1cc2c(cc1NC(=O)c1ccc(F)cc1)[C@@]1(C)CCC[C@@](C)(C(=O)O)[C@@H]1CC2`, the Activity turned out to be 83.4%.
Under `CC(C)c1cc2c(cc1NC(=O)c1ccccc1C(F)(F)F)[C@@]1(C)CCC[C@@](C)(C(=O)O)[C@@H]1CC2` stands 59.4%.
Under `CCCOc1cc2c(cc1C(C)C)CC[C@H]1[C@](C)(C(=O)O)CCC[C@]21C` stands 118%; under `CCCC(=O)Nc1cc2c(cc1C(C)C)CC[C@H]1[C@](C)(C(=O)O)CCC[C@]21C`, 92.4%.
Under `COc1ccccc1C(=O)Nc1cc2c(cc1C(C)C)CC[C@H]1[C@](C)(C(=O)O)CCC[C@]21C` stands 86.5%; under `CC(C)c1cc2c(cc1NC(=O)c1ccc(Cl)cc1)[C@@]1(C)CCC[C@@](C)(C(=O)O)[C@@H]1CC2`, 108%; under `CC(C)C(=O)Nc1cc2c(cc1C(C)C)CC[C@H]1[C@](C)(C(=O)O)CCC[C@]21C`, 130%.
In the case of `CC(C)c1cc2c(cc1OCc1ccc3ccccc3c1)[C@@]1(C)CCC[C@@](C)(C(=O)O)[C@@H]1CC2`, the Activity is 83.7%.
With `CC(C)c1cc2c(cc1NC(=S)Nc1cc(C(F)(F)F)cc(C(F)(F)F)c1)[C@@]1(C)CCC[C@@](C)(C(=O)O)[C@@H]1CC2` the figure was 240%.
As to `CC(C)c1cc2c(cc1NC(=O)Nc1ccc(F)c(F)c1)[C@@]1(C)CCC[C@@](C)(C(=O)O)[C@@H]1CC2`, the Activity was determined as 139%.
With `COc1ccc(NC(=O)Nc2cc3c(cc2C(C)C)CC[C@H]2[C@](C)(C(=O)O)CCC[C@]32C)cc1`, the Activity was 107%.
For the compound `CC(=O)Nc1cc2c(cc1C(C)C)CC[C@H]1[C@](C)(C(=O)O)CCC[C@]21C`, the Activity worked out at 96.1%.
Take `CC(C)c1cc2c(cc1NC(=O)c1cc(C(F)(F)F)cc(C(F)(F)F)c1)[C@@]1(C)CCC[C@@](C)(C(=O)O)[C@@H]1CC2`: the Activity was 81.8%.
With `CC(C)c1cc2c(cc1NC(=O)Nc1ccccc1)[C@@]1(C)CCC[C@@](C)(C(=O)O)[C@@H]1CC2` the figure was 72.7%.
Under `CC(C)c1cc2c(cc1OCc1ccc(Cl)cc1)[C@@]1(C)CCC[C@@](C)(C(=O)O)[C@@H]1CC2` stands 91.6%.
`CC(C)c1cc2c(cc1OCc1ccccc1)[C@@]1(C)CCC[C@@](C)(C(=O)O)[C@@H]1CC2`: the Activity turned out to be 89.5%.
Under `CC(C)c1cc2c(cc1NC(=O)C1CC1)[C@@]1(C)CCC[C@@](C)(C(=O)O)[C@@H]1CC2` stands 91.6%; under `CCCCCCCCCCCC(=O)Nc1cc2c(cc1C(C)C)CC[C@H]1[C@](C)(C(=O)O)CCC[C@]21C`, 103%.
Under `CC(C)c1cc2c(cc1NC(=O)Nc1ccc(Cl)c(C(F)(F)F)c1)[C@@]1(C)CCC[C@@](C)(C(=O)O)[C@@H]1CC2` stands 168%.
Under `CC(C)c1cc2c(cc1OCCCc1ccccc1)[C@@]1(C)CCC[C@@](C)(C(=O)O)[C@@H]1CC2` stands 93.2%; under `CC(C)Oc1cc2c(cc1C(C)C)CC[C@H]1[C@](C)(C(=O)O)CCC[C@]21C`, 125%; under `CC(C)c1c([N+](=O)[O-])cc2c(c1[N+](=O)[O-])CC[C@H]1[C@](C)(C(=O)O)CCC[C@]21C`, 200%.
In the case of `CC(C)c1cc2c(cc1NC(=O)C1CCCCC1)[C@@]1(C)CCC[C@@](C)(C(=O)O)[C@@H]1CC2`, the Activity is 95.9%.
With `CCC(=O)Nc1cc2c(cc1C(C)C)CC[C@H]1[C@](C)(C(=O)O)CCC[C@]21C` the figure was 90.2%; with `CC(C)c1cc2c(cc1NC(=O)Nc1cc(C(F)(F)F)cc(C(F)(F)F)c1)[C@@]1(C)CCC[C@@](C)(C(=O)O)[C@@H]1CC2`, 132%.
With `CC(C)c1cc2c(cc1NC(=O)c1cccc(C(F)(F)F)c1)[C@@]1(C)CCC[C@@](C)(C(=O)O)[C@@H]1CC2` the figure was 92.5%; with `CC(C)c1c(N)cc2c(c1N)CC[C@H]1[C@](C)(C(=O)O)CCC[C@]21C`, 110%.
Turning to `CC(C)c1cc2c(cc1O)[C@@]1(C)CCC[C@@](C)(C(=O)O)[C@@H]1CC2`, the Activity came to 83%.
